Measured values as given in patent US6926892B2, “Protecting plants from oomycete pathogens by treatment with compositions containing serratamolide and oocydin a from Serratia marcescens” (HMV Corporation, priority 2000, dated 2005).
Converted amounts (≈) assume the structure as drawn.

Key:
Oomycetes [1] = assay: Minimum inhibitory concentration tests against a number of plant fungal pathogens (summary); format: cell-based; details: e.g., P. cactorum, P. capsici, P. ultimum
Method: (§1) 900 μl of potato dextrose broth was placed into the wells of a sterile 24-well culture plate. Serratamolide (in methanol) was added to the wells in concentrations of 0, 3.3, 10, 33 and 100 μg/ml. 20 μl methanol was added to one row to serve as a control. Fungal cultures to be tested were grown on PDA plates for three to five days. Pieces of agar containing the cultures were transferred to sterile microfuge tubes containing 0.5 ml sterile distilled water and broken up using a sterile Teflon pestle. 100 μl of PD broth containing the mycelia was added to each well, and growth inhibition was monitored over 3 days. At the end of 3 days cultures were transferred to a ground glass homogenizer, gently broken up, diluted in distilled water and the optical density measured using a Spectronic 20 spectrophotometer at 660 nm. The minimum inhibitory concentration was determined as the concentration of serratamolide compound needed to effect a 10% reduction in growth.

Phytophtora parasitica = assay: Minimum inhibitory concentration in potato dextrose broth, 24-well plate; format: cell-based; details: 3 days, MIC = concentration needed to effect a 10% reduction in growth (OD 660 nm)
Method: as §1

Pythium ultimum = assay: as above; format: cell-based; details: 3 days, MIC = concentration needed to effect a 10% reduction in growth (OD 660 nm)
Method: as §1

Rhizoctonia solani = assay: as above; format: cell-based; details: 3 days, MIC = concentration needed to effect a 10% reduction in growth (OD 660 nm)
Method: as §1

Phytophthora cactorum = assay: as above; format: cell-based; details: 3 days, MIC = concentration needed to effect a 10% reduction in growth (OD 660 nm)
Method: as §1

Phytophthora capsici = assay: as above; format: cell-based; details: 3 days, MIC = concentration needed to effect a 10% reduction in growth (OD 660 nm)
Method: as §1

Botrytis cinera = assay: as above; format: cell-based; details: 3 days, MIC = concentration needed to effect a 10% reduction in growth (OD 660 nm)
Method: as §1

Oomycetes [2] = details: from Strobel et al. 1999 / U.S. Ser. No. 09/858,871; cited from earlier work

Row | SMILES | Spectrum of activity among plant pathogens tested (Oomycetes [1]) | Minimum inhibitory concentration (Phytophtora parasitica) [µg/mL] | Minimum inhibitory concentration (Pythium ultimum) [µg/mL] | Minimum inhibitory concentration (Rhizoctonia solani) [µg/mL] | Minimum inhibitory concentration (Phytophthora cactorum) [µg/mL] | Minimum inhibitory concentration (Phytophthora capsici) [µg/mL] | Minimum inhibitory concentration (Botrytis cinera) [µg/mL] | Activity against Oomycetes, MICs relative to metalaxyl (Oomycetes [2])
1 | CCCCCCC[C@@H]1CC(=O)N[C@@H](CO)C(=O)O[C@H](CCCCCCC)CC(=O)N[C@@H](CO)C(=O)O1 [serratamolide] | active against Oomycetes only | 6 (≈ 11.7 µM) | 6 (≈ 11.7 µM) | >100 | 60 (≈ 117 µM) | 10 (≈ 19.4 µM) | >100 | –
2 | CC(=O)OC1CC(=O)O[C@H]2C[C@H](CC/C(Cl)=C\C/C=C\1C)O[C@H]2[C@@H](O)/C=C(\C)CC(=O)O (some centres unmarked) [oocydin A] | – | – | – | – | – | – | – | selective lethal activity against Oomycetes at MICs lower or similar to those noted for metalaxyl
